This note sets out measurements from patent publication US20230094753A1, “NANOSTRUCTURE LIPID CARRIER DELIVERY SYSTEM, COMPOSITION, AND METHODS” (priority 2020, published 2023).

This series is described as follows: CBD solubility in lipid excipients (about 0.345 g CBD exposed to 10 ml lipid). Format: physicochemical. The conditions noted are these: approx. 0.345 g CBD in 10 ml. The method, then:
Approximately 0.345 g of CBD was exposed to 10 ml of the listed lipid and solubility was assessed.

On to `C=C(C)[C@@H]1CCC(C)=C[C@H]1c1c(O)cc(CCCCC)cc1O` [CBD, cannabidiol], for which the SOLUBILITY result is reported as “Medium CBD Solubility” (solvent 1: Apricot Kernel Oil PEG-6 Esters); “Medium CBD Solubility” (solvent 2: Corn Oil PEG-6 Ester); “Stability Problematic” (solvent 3: Ethoxydiglycol); “Medium CBD Solubility” (solvent 4: Glycerine soja (Soyean) oil (and) Glyceryl Distearate (and) Polyglyceryl-3 Dioleate); “Bad CBD Solubility” (solvent 5: Glyceryl Linoleate); “Bad CBD Solubility” (solvent 6: Glyceryl Oleate). Further, the SOLUBILITY entry is, setting by setting: (solvent 7: PEG-8 Caprylic/Capric Glycerides) “Stability Problematic”; (solvent 8: Polyglyceryl-3-diolate) “Bad CBD Solubility”; (solvent 9: Propylene Glycol Caprate) “Good CBD Solubility”; (solvent 10: Propylene Glycol Laurate) “Medium CBD Solubility”; (solvent 13: PEG-8) “Medium CBD Solubility”; (solvent 18: Caprylic/Capric Triglyceride) “Medium CBD Solubility”. Moreover, the SOLUBILITY entry (solvent 19: PEG-8 Carylic/Capric Glycerides) is given as “Good CBD Solubility”; the SOLUBILITY result (solvent 20: Glyceryl Caprylate/Caprate) is listed as “Medium CBD Solubility”; the SOLUBILITY entry (solvent 21: Propylene Glycol Monocaprylate) is recorded as “Good CBD Solubility”; the SOLUBILITY entry (solvent 22: Olea Europaea (Olive) Oil) is “Bad CBD Solubility”; the SOLUBILITY result (solvent 23: Glycine Soja (Soybean) Oil) is given as “Medium CBD Solubility”.
